Source: PMC12203311, “Design, synthesis, in silico and in vitro evaluation of pyrrole–indole hybrids as dual tubulin and aromatase inhibitors with potent anticancer activities” (RSC Advances, 2025)

Columns and labels:
[1] = tested on: CCRF-CEM; assay: NCI60 five-dose screen; assay type: cell-based; conditions: Homo sapiens, leukemia
[2] = tested on: HL-60 (TB); assay: NCI60 five-dose screen; assay type: cell-based; conditions: Homo sapiens, leukemia
[3] = tested on: RPMI-8226; assay: NCI60 five-dose screen; assay type: cell-based; conditions: Homo sapiens, RPMI-8226, leukemia
[4] = tested on: A549/ATCC; assay: NCI60 five-dose screen; assay type: cell-based; conditions: Homo sapiens, NSC lung cancer
[5] = tested on: HOP-62; assay: NCI60 five-dose screen; assay type: cell-based; conditions: Homo sapiens, HOP-62, NSC lung cancer
[6] = tested on: HOP-92; assay: NCI60 five-dose screen; assay type: cell-based; conditions: Homo sapiens, HOP-92, NSC lung cancer
[7] = tested on: NCI-H226; assay: NCI60 five-dose screen; assay type: cell-based; conditions: Homo sapiens, NCI-H226, NSC lung cancer
[8] = tested on: NCI-H23; assay: NCI60 five-dose screen; assay type: cell-based; conditions: Homo sapiens, NCI-H23, NSC lung cancer
[9] = tested on: NCI-H460; assay: NCI60 five-dose screen; assay type: cell-based; conditions: Homo sapiens, NCI-H460, NSC lung cancer
[10] = tested on: COLO 205; assay: NCI60 five-dose screen; assay type: cell-based, human; conditions: Homo sapiens
[11] = tested on: HCT-15; assay: NCI60 five-dose screen; assay type: cell-based; conditions: Homo sapiens, HCT-15, colon cancer
[12] = tested on: SF-268; assay: NCI60 five-dose screen; assay type: cell-based; conditions: Homo sapiens, SF-268, CNS cancer
[13] = tested on: SF-295; assay: NCI60 five-dose screen; assay type: cell-based; conditions: Homo sapiens, SF-295, CNS cancer
[14] = tested on: LOX IMVI; assay: NCI60 five-dose screen; assay type: cell-based; conditions: Homo sapiens, melanoma
[15] = tested on: MALME-3M; assay: NCI60 five-dose screen; assay type: cell-based; conditions: Homo sapiens, melanoma
[16] = tested on: MDA-MB-435; assay: NCI60 five-dose screen; assay type: cell-based, human; conditions: Homo sapiens; MDA-MB-435, melanoma
[17] = tested on: SK-MEL-28; assay: NCI60 five-dose screen; assay type: cell-based; conditions: Homo sapiens, SK-MEL-28, melanoma
[18] = tested on: UACC-257; assay: NCI60 five-dose screen; assay type: cell-based; conditions: Homo sapiens, UACC-257, melanoma
[19] = tested on: OVCAR-8; assay: NCI60 five-dose screen; assay type: cell-based; conditions: Homo sapiens, OVCAR-8, ovarian cancer
[20] = tested on: SK-OV-3; assay: NCI60 five-dose screen; assay type: cell-based; conditions: Homo sapiens, SK-OV-3, ovarian cancer
[21] = tested on: 786-0; assay: NCI60 five-dose screen; assay type: cell-based; conditions: Homo sapiens, 786-0, renal cancer
[22] = tested on: A498; assay: NCI60 five-dose screen; assay type: cell-based; conditions: Homo sapiens, A498, renal cancer
[23] = tested on: CAKI-1; assay: NCI60 five-dose screen; assay type: cell-based; conditions: Homo sapiens, CAKI-1, renal cancer
[24] = tested on: RXF 393; assay: NCI60 five-dose screen; assay type: cell-based; conditions: Homo sapiens, RXF 393, renal cancer
[25] = tested on: SN12C; assay: NCI60 five-dose screen; assay type: cell-based; conditions: Homo sapiens, renal cancer
[26] = tested on: PC-3; assay: NCI60 five-dose screen; assay type: cell-based; conditions: Homo sapiens, PC-3, prostate cancer
[27] = tested on: BT-549; assay: NCI60 five-dose screen; assay type: cell-based; conditions: Homo sapiens, BT-549, breast cancer
[28] = tested on: MDA-MB-468; assay: NCI60 five-dose screen; assay type: cell-based; conditions: Homo sapiens, MDA-MB-468, breast cancer
[29] = Cytotoxicity MTT assay, L929; assay type: cell-based, mouse; conditions: mouse, L929 fibroblast cells; MTT, 48 hours
Experimental: (§1) T47D (ATCC HTB-133) was purchased from Biomedia (Thailand) Co., LTD. L929 (ATCC CCL-1) was received as a gift from Prof. Tanapat Palaga, Department of Microbiology, Faculty of Science, Chulalongkorn University, Bangkok, Thailand. The cells were cultured in Dulbecco's Modified Eagle's Medium (DMEM; Gibco) supplemented with 10% fetal bovine serum (FBS; HyClone), 100 U mL^−1 penicillin and 100 µg mL^−1 streptomycin (Gibco) at 37 °C with 5% CO2.
(§2) The antiproliferative activity was determined by MTT assay. Briefly, the cells were plated into a 96-well microplate at the density of 10 000 cells per well. The cells were allowed to grow overnight before treated with the solutions of compounds in culture medium at the designated concentrations for 48 hours. The medium was then replaced with MTT solution (0.5 mg mL^−1 MTT in culture medium) and incubated for 3 hours. A 100 µL of DMSO was used to dissolve the produced formazan. Absorbance at 570 nm was then measured using a microplate reader (Varioskan™ LUX multimode microplate reader, Thermo Scientific™). Percent viability was calculated relative to the vehicle control (DMSO).

[30] = tested on: L929 normal mouse fibroblast cell line; assay: Cytotoxicity MTT assay, L929; assay type: cell-based; conditions: IC50 (L929)/IC50 (T47D)
Experimental: as §1, §2

[31] = read-out: LC50 (the source's name)

With `O=C(N/N=C/c1cc(Cl)c[nH]1)c1[nH]c2ccc(Br)cc2c1-c1ccccc1` [Derivative 3h, (E)-5-Bromo-N′-((4-chloro-1H-pyrrol-2-yl)methylene)-3-phenyl-1H-indole-2-carbohydrazide] the GI50 [1] was 132 nM, the CC50 [1, 31] was over 100000 nM and the GI50 [2] was 185 nM. It also gave a CC50 [2, 31] of 886 nM, a GI50 [3] of 446 nM and a CC50 [3, 31] of over 100000 nM. It also gave a GI50 [4] of 430 nM, a CC50 [4, 31] of 47400 nM and a GI50 [5] of 408 nM. The CC50 [5, 31] was 34700 nM, the GI50 [6] was 1190 nM and the CC50 [6, 31] was 55400 nM. For the same molecule, the GI50 [7] was 604 nM, the CC50 [7, 31] was over 100000 nM and the GI50 [8] was 317 nM. The CC50 [8, 31] was 36500 nM, the GI50 [9] was 281 nM and the CC50 [9, 31] was 9240 nM. The CC50 ([10]; COLO 205, COLO 205, colon cancer, read-out: LC50 (the source's name)) was 1880 nM, the GI50 ([10]; COLO 205, colon cancer) was 251 nM and the GI50 [11] was 302 nM. For the same molecule, the CC50 [11, 31] was 21900 nM, the GI50 [12] was 388 nM and the CC50 [12, 31] was 77300 nM. The GI50 [13] was 237 nM, the CC50 [13, 31] was 58500 nM and the GI50 [14] was 370 nM. It also gave a CC50 [14, 31] of 16700 nM, a GI50 [15] of 645 nM and a CC50 [15, 31] of 46100 nM. For the same molecule, the GI50 [16] was 185 nM, the GI50 [17] was 582 nM and the CC50 [17, 31] was 47900 nM. The GI50 [18] was 856 nM, the CC50 [18, 31] was 58800 nM and the GI50 [19] was 214 nM. For the same molecule, the CC50 [19, 31] was 988 nM, the GI50 [20] was 519 nM and the CC50 [20, 31] was 45400 nM. The GI50 [21] was 459 nM, the CC50 [21, 31] was 39800 nM and the GI50 [22] was 1450 nM. The CC50 [22, 31] was 42100 nM, the GI50 [23] was 253 nM and the CC50 [23, 31] was 27500 nM. It also gave a GI50 [24] of 219 nM, a CC50 [24, 31] of 34300 nM and a GI50 [25] of 391 nM. For the same molecule, the CC50 [25, 31] was 15300 nM, the GI50 [26] was 426 nM and the CC50 [26, 31] was 47600 nM. For the same molecule, the GI50 [27] was 255 nM, the CC50 [27, 31] was 18100 nM and the GI50 [28] was 251 nM. The CC50 [28, 31] was 27800 nM, the IC50 at 48 h [29] was 53700 ± 30400 nM and the “Selectivity index (SI)” value [30] was 22.4.
